What was measured:
[1] = biological target: Sigma non-opioid intracellular receptor 1 (Homo sapiens) (UniProt Q99720); details: Cavia porcellus; 200 nM
[2] = biological target: Sigma non-opioid intracellular receptor 1 (Homo sapiens) (UniProt Q99720); details: Cavia porcellus; 1 uM
[3] = biological target: Sigma non-opioid intracellular receptor 1 (Homo sapiens) (UniProt Q99720); details: Cavia porcellus; 5 uM
[4] = biological target: Sigma non-opioid intracellular receptor 1 (Homo sapiens) (UniProt Q99720); details: Cavia porcellus; 0.1 uM
Description: Maximum binding capacity against Sigma opioid receptor type 2 at 0.1 uM BNIT

[5] = biological target: Sigma non-opioid intracellular receptor 1 (Homo sapiens) (UniProt Q99720); details: Cavia porcellus; 0.1 uM; remark: listed apart in the source
[6] = biological target: Sigma non-opioid intracellular receptor 1 (Homo sapiens) (UniProt Q99720); details: Cavia porcellus; 0.1 uM; remark: listed apart in the source
Description: Maximum binding capacity against Sigma opioid receptor type 1 at 0.1 uM BNIT

[7] = biological target: Sigma non-opioid intracellular receptor 1 (Homo sapiens) (UniProt Q99720); details: Cavia porcellus; 0.1 uM; remark: listed apart in the source

Sequence of Sigma non-opioid intracellular receptor 1 (Homo sapiens) (Q99720 whole entry): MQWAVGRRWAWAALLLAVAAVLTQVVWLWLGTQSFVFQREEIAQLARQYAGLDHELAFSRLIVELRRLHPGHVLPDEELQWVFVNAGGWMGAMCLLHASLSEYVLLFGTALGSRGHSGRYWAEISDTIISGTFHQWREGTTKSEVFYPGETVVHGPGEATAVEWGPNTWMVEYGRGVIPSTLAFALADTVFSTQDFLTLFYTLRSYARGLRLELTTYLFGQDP

| Compound | Bmax [1] [fmol/mg] | Bmax [2] [fmol/mg] | Bmax [3] [fmol/mg] | Bmax2 [4] | Kd2 [5] [nM] | Bmax1 [6] | Kd1 [7] [nM] |
| --- | --- | --- | --- | --- | --- | --- | --- |
| CC(C)=CCN1CC[C@]2(C)c3cc(O)ccc3C[C@H]1[C@H]2C | 1120 |  |  |  |  |  |  |
| Cc1ccccc1NC(=N)Nc1ccccc1C |  | 1010 | 957 | 1330 | 21.4 | 674 | 12.8 |
